Reference: patent publication US9850247B2 (Almac Discovery Limited, priority 2013, dated 2017)

What was measured:
Wee-1 kinase = target: T1, Wee-1 kinase (Homo sapiens, UniProt P30291); test: Measurement of Wee-1 kinase activity (ADP-Glo luminescent kit); format: biochemical
T1 construct: purchased Invitrogen PV3817
Procedure, shortened: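 Activated Wee-1 was pre-incubated 30 min at RT with compound in 40 mM Tris-HCl, 20 mM MgCl2, 0.1 mg/mL BSA and 2 mM DTT. The reaction was started with an aliquot of 2.0 μg/mL poly(Lys,Tyr 4:1) plus 30 μM ATP and run 1 h at RT. ADP-Glo luminescence gave IC50 by non-linear fit.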

[1] = test system: phospho-cdc2 (Tyr15) in HT-29 cells; test: Effect on Cdc2 phosphorylation at Tyr15, Cell-Based ELISA Base Kit (Method 3); settings: Homo sapiens, HT-29, 8 h, eight hours incubation, normalized to total cdc2, read-out: HT29 pCDC2 method 3
Method: Method 3: Determining the Effect of Compounds on the Cdc2 phosphorylation at Tyr15, using a Cell-Based ELISA Base Kit (R&D Systems, KCB001)
The colorectal cancer cell line, HT-29 was purchased from the ATCC and maintained in McCoy's 5 A medium (Gibco®, Life technologies) supplemented with 10% Foetal Calf Serum (FCS).
The cells were trypsinised and counted, 100 μL of 8000 cells was seeded into each well of a clear-bottom black 96-well microplate and incubated overnight to allow adherence to the surface, at 37° C. and 5% CO2 in a cell culture incubator.
Test compounds were formulated in DMSO and diluted in cell culture medium supplemented with FCS. Grow medium was removed from cells and medium containing compounds dilutions was added to each well. The plate was returned to the incubator for an additional eight hours of incubation at 37° C. and 5% CO2.
Post incubation cells were fixed by replacing the compounds supplemented medium with 100 μL of 4% formaldehyde in 1× phosphate buffered saline (PBS), for 20 minutes at room temperature. Formaldehyde solution was removed and cells were washed three times with PBS. The Cell-Based ELISA assay (R&D Systems) was carried out immediately after cell fixation or the plate was sealed and fixed cells were stored in PBS at 4° C. until required (no more than two weeks).
To continue the assay, PBS was removed and cells were washed 3 times for 5 minutes with 200 μL of 1× wash buffer. Each wash step was carried out with gentle shaking. Following washes, 100 μL of 0.6% H2O2 in 1× wash buffer (quenching buffer) was added, plate was sealed and incubated for 20 minutes at room temperature. Post incubation cells were washes 3 times for 5 minutes with 200 μL of 1× wash buffer, with gentle shaking. 100 μL of blocking buffer was added to each well, the plate was re-sealed and incubated at room temperature for 1 h.
After blocking, cells were washed as described above. A primary antibody mixture was prepared by mixing the two primary antibodies, a rabbit monoclonal antibody for phospho-cdc2 (Tyr15) (Cell Signaling, #4539) and mouse monoclonal antibody for total cdc2 p34 (Santa Cruz Biotechnology, sc-54), diluted 1:25 and 1:50 in blocking buffer, respectively. 60 μL of primary antibody mixture was added to each well, the plate was sealed and incubated overnight at 4° C.
The primary antibodies were removed and cells were washed as previously described. 100 μL of secondary antibody mixture, containing horseradish-peroxidase (HRP)-conjugated goat anti-rabbit IgG and alkaline phosphatase (AP)-conjugated goat anti-mouse IgG, diluted 1:100 in blocking buffer, was added to each test well. The plate was re-sealed and incubated for 2 hours at room temperature.
The secondary antibodies were removed and cells washed 2 times with wash buffer, followed by 2 washes with PBS. Each wash step was carried out for 5 minutes with gentle shaking. PBS was removed and 75 μL of fluorogenic substrate for HRP (substrate F1) added to each well. The plate was sealed and incubated for 1 h at room temperature, in the dark. 75 μL of fluorogenic substrate for AP (substrate F2) was added directly to each well, plate re-sealed and incubated for additional 40 minutes at room temperature, protected from direct light.
Following incubation fluorescence from each well was read at 600 nm (signal from substrate 1, phosphorylated protein) and then at 450 nm (signal from substrate 2, total protein).
The percentage of phospho-cdc2 was calculated compared to DMSO control, normalized to the total cdc2 and plotted versus the concentration of inhibitor, using GraphPad Prism. Data was fitted using a non-linear regression analysis and EC50 values generated.

[2] = CLint estimates using human liver microsomes (Method 4); format: in vitro ADME; settings: pH 7.4, 1 μM compound, read-out: Mics - CLint (HLM CLint)
Method: Method 4: Determination of CLint Estimates Using Human liver microsomes Test compounds (final concentration=1 μM; final DMSO concentration=0.1%) were incubated in 0.1 M phosphate buffer pH 7.4 with human liver microsomes (0.5 mg of protein/mL) at 37° C. Reactions were started by addition of NADPH in 0.1 M phosphate buffer pH 7.4 (final concentration 1 mM). 40 μL aliquots were removed at 2, 5, 10, 15, 20, 30, 40 and 50 min. Reactions were quenched in 80 μL of ice-cold methanol. Samples were subsequently frozen overnight then centrifuged at 3500 rpm for 20 min at 4° C. The supernatants were removed and transferred into analytical plates and analysed by LC/MS/MS. LC/MS/MS Method: All samples were analysed on a Waters Acquity I-Class coupled to a Waters Xevo TQD mass spectrometer. A Waters BEH C18 2.1×50 mm 1.7 μm column was used and mobile phases were water and methanol containing 0.1% formic acid as modifier. Analysis was by multiple reaction monitoring and conditions were optimised for each test compound. Data Analyses: From a plot of 1n peak area against time, the gradient of the line is determined. Subsequently, half-life and intrinsic clearance are calculated using the following equations. [formula] [formula] [formula] where V=Incubation volume (μL)/number of cells Method 5: Determination of Kinetic Solubility (in PBS Buffer)

T1 sequence (P30291 whole entry): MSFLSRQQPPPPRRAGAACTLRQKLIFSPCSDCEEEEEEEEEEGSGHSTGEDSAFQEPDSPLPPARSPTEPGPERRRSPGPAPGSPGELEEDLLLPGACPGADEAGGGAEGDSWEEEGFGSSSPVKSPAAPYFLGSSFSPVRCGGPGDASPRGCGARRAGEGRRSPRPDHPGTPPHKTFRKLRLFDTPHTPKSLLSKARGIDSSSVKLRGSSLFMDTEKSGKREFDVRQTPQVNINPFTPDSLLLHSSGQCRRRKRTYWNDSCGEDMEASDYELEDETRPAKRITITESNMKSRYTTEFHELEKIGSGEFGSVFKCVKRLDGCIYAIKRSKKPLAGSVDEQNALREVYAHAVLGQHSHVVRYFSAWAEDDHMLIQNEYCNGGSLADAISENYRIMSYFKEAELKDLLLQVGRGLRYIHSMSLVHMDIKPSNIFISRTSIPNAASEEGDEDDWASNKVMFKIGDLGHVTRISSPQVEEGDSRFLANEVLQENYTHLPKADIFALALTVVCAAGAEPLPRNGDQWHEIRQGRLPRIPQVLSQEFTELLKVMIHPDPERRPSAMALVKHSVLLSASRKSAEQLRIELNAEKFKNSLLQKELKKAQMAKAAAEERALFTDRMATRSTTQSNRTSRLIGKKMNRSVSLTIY

| IC50 (Wee-1 kinase) [nM] | microsomal CLint at 1 μM [2] [µL/min/mg] | SMILES | EC50 [1] [nM] |
| --- | --- | --- | --- |
| 10 to 100 | ≤ 15 | CN1CCC(Nc2cccc(Nc3ncc4c(n3)N(C)CN(c3c(Cl)cccc3Cl)C4=O)c2)CC1 [Example 91, 3-(2,6-dichlorophenyl)-1-methyl-7-((3-((1-methylpiperidin-4-yl)amino)phenyl)amino)-2,3-dihydropyrimido[4,5-d]pyrimidin-4(1H)-one] |  |
| ≤ 10 | ≤ 15 | COC[C@H]1CNCCN1c1ccc(Nc2ncc3c(n2)N(C)CN(c2c(Cl)cccc2Cl)C3=O)cc1 [Example 129, (R)-3-(2,6-dichlorophenyl)-7-((4-(2-(methoxymethyl)piperazin-1-yl)phenyl)amino)-1-methyl-2,3-dihydropyrimido[4,5-d]pyrimidin-4(1H)-one] |  |
| 10 to 100 | 15 to 50 | CN1CN(c2c(Cl)cccc2Cl)C(=O)c2cnc(Nc3ccc(N4CCN5CCOC[C@@H]5C4)c(CO)c3)nc21 [Example 133, (S)-3-(2,6-dichlorophenyl)-7-((4-(hexahydropyrazino[2,1-c][1,4]oxazin-8(1H)-yl)-3-(hydroxymethyl)phenyl)amino)-1-methyl-2,3-dihydropyrimido[4,5-d]pyrimidin-4(1H)-one] |  |
| 10 to 100 | ≤ 15 | CN1CN(c2c(Cl)cccc2Cl)C(=O)c2cnc(Nc3ccc(N4C[C@@H]5C[C@H]4CN5)cc3)nc21 [Example 39, 7-((4-((1S,4S)-2,5-diazabicyclo[2.2.1]heptan-2-yl)phenyl)amino)-3-(2,6-dichlorophenyl)-1-methyl-2,3-dihydropyrimido[4,5-d]pyrimidin-4(1H)-one] |  |
| ≥ 100 | ≤ 15 | CNCc1cc(Nc2ncc3c(n2)N(C)CN(c2c(Cl)cccc2Cl)C3=O)ccc1F [Example 152, 3-(2,6-dichlorophenyl)-7-((4-fluoro-3-((methylamino)methyl)phenyl)amino)-1-methyl-2,3-dihydropyrimido[4,5-d]pyrimidin-4(1H)-one] |  |
| 10 to 100 | ≤ 15 | C[C@@H]1CN(c2ccc(Nc3ncc4c(n3)N(C)CN(c3c(Cl)cccc3Cl)C4=O)cc2OC(F)F)CCN1 [Example 132, (R)-3-(2,6-dichlorophenyl)-7-((3-(difluoromethoxy)-4-(3-methylpiperazin-1-yl)phenyl)amino)-1-methyl-2,3-dihydropyrimido[4,5-d]pyrimidin-4(1H)-one] |  |
| 10 to 100 | ≤ 15 | CNCc1cc(Nc2ncc3c(n2)N(C)CN(c2c(Cl)cccc2Cl)C3=O)ccc1-c1ccncc1 [Example 155, 3-(2,6-dichlorophenyl)-1-methyl-7-((3-((methylamino)methyl)-4-(pyridin-4-yl)phenyl)amino)-2,3-dihydropyrimido[4,5-d]pyrimidin-4(1H)-one] |  |
| 10 to 100 | ≤ 15 | COCc1cc(Nc2ncc3c(n2)N(C)CN(c2c(Cl)cccc2Cl)C3=O)ccc1N1CCN(C)[C@H](C)C1 [Example 67, (R)-3-(2,6-dichlorophenyl)-7-((4-(3,4-dimethylpiperazin-1-yl)-3-(methoxymethyl)phenyl)amino)-1-methyl-2,3-dihydropyrimido[4,5-d]pyrimidin-4(1H)-one] |  |
| 10 to 100 | 15 to 50 | CN1CN(c2c(Cl)cccc2Cl)C(=O)c2cnc(Nc3ccc(C4(N)CCC4)cc3)nc21 [Example 37, 7-((4-(1-aminocyclobutyl)phenyl)amino)-3-(2,6-dichlorophenyl)-1-methyl-2,3-dihydropyrimido[4,5-d]pyrimidin-4(1H)-one] |  |
| 10 to 100 | ≤ 15 | Cc1cc(Nc2ncc3c(n2)N(C)CN(c2c(C)cccc2Cl)C3=O)ccc1N1C[C@@H]2C[C@H]1CN2 [Example 112, 7-((4-((1S,4S)-2,5-diazabicyclo[2.2.1]heptan-2-yl)-3-methylphenyl)amino)-3-(2-chloro-6-methylphenyl)-1-methyl-2,3-dihydropyrimido[4,5-d]pyrimidin-4(1H)-one] |  |
| 10 to 100 | ≤ 15 | CN1CN(c2c(Cl)cccc2Cl)C(=O)c2cnc(Nc3ccc(OC4CCNCC4)cc3)nc21 [Example 87, 3-(2,6-dichlorophenyl)-1-methyl-7-((4-(piperidin-4-yloxy)phenyl)amino)-2,3-dihydropyrimido[4,5-d]pyrimidin-4(1H)-one] |  |
| 10 to 100 | 15 to 50 | CCN1CCN(c2ccc(Nc3ncc4c(n3)N(C)CN(c3ccccc3Cl)C4=O)cc2CO)CC1 [Example 113, 3-(2-chlorophenyl)-7-((4-(4-ethylpiperazin-1-yl)-3-(hydroxymethyl)phenyl)amino)-1-methyl-2,3-dihydropyrimido[4,5-d]pyrimidin-4(1H)-one] |  |
| 10 to 100 | ≥ 50 | CNCc1cc(Nc2ncc3c(n2)N(C)CN(c2c(Cl)cccc2Cl)C3=O)ccc1N1CCCCC1 [Example 136, 3-(2,6-dichlorophenyl)-1-methyl-7-((3-((methylamino)methyl)-4-(piperidin-1-yl)phenyl)amino)-2,3-dihydropyrimido[4,5-d]pyrimidin-4(1H)-one] |  |
| ≥ 100 | 15 to 50 | COCCN1CCN(c2ccc(Nc3ncc4c(n3)N(C)CN(c3c(Cl)cccc3Cl)C4=O)cc2)CC1 [Example 120, 3-(2,6-dichlorophenyl)-7-((4-(4-(2-methoxyethyl)piperazin-1-yl)phenyl)amino)-1-methyl-2,3-dihydropyrimido[4,5-d]pyrimidin-4(1H)-one] |  |
| 10 to 100 | 15 to 50 | CN1CN(c2c(Cl)cccc2Cl)C(=O)c2cnc(Nc3ccc(N4CCS(=O)(=O)CC4)cc3)nc21 [Example 42, 3-(2,6-dichlorophenyl)-7-((4-(1,1-dioxidothiomorpholino)phenyl)amino)-1-methyl-2,3-dihydropyrimido[4,5-d]pyrimidin-4(1H)-one] |  |

| SMILES | IC50 (Wee-1 kinase) [nM] | microsomal CLint at 1 μM [2] [µL/min/mg] | EC50 [1] [nM] |
| --- | --- | --- | --- |
| CN1CN(c2c(Cl)cccc2Cl)C(=O)c2cnc(Nc3ccc4c(c3)C3CCC4N3C)nc21 (stereo not shown) [Example 175, 3-(2,6-dichlorophenyl)-1-methyl-7-((9-methyl-1,2,3,4-tetrahydro-1,4-epiminonaphthalen-6-yl)amino)-2,3-dihydropyrimido[4,5-d]pyrimidin-4(1H)-one] | ≤ 10 |  | 100 to 1000 |
| CN1CN(c2c(Cl)cccc2Cl)C(=O)c2cnc(Nc3ccc(N4CC5COCC(C4)N5)cc3)nc21 [Example 64, 7-((4-(3-oxa-7,9-diazabicyclo[3.3.1]nonan-7-yl)phenyl)amino)-3-(2,6-dichlorophenyl)-1-methyl-2,3-dihydropyrimido[4,5-d]pyrimidin-4(1H)-one] | 10 to 100 | ≤ 15 |  |
